The values that follow come from patent publication US4746728A, “8-glycine, des-19-leucine-calcitonin” (Armour Pharmaceutical Company, priority 1986, dated 1988).

Assay [1] deals with serum calcium concentration.
Procedure: Biological Assay Of Calcitonin Analogs In Vivo
Rats were divided into four groups of seven animals, and each group was assigned at random to a dose of standard or test solution. Low and high doses were chosen from the linear portion of the dose-response curve. For the salmon calcitonin standard, the values were 0.7 and 2.1 ng. peptide/100 g. body weight (BW). This dose approximates 3 and 9 MU/100 g. […] Peptides were given by subcutaneous injection (0.2 ml/100 g. BW) and blood was withdrawn 1 hour later for serum calcium determination. Sera are processed and analyzed within two hours of collection. Results were analyzed within two hours of collection.
The conditions of assay [2]: literature values, Monikawa et al.; cited from earlier work.

Positions of bridges follow the written chain, without caps; N, C: chain ends. Residues, ends and D or L forms follow the SMILES beside them. No end group written: not given here.

As for `CC(C)C[C@H](NC(=O)CNC(=O)[C@@H]1CSSC[C@H](N)C(=O)N[C@@H](CO)C(=O)N[C@@H](CC(N)=O)C(=O)N[C@@H](CC(C)C)C(=O)N[C@@H](CO)C(=O)N[C@@H]([C@@H](C)O)C(=O)N1)C(=O)NCC(=O)N[C@@H](CCCCN)C(=O)N[C@@H](CC(C)C)C(=O)N[C@@H](CO)C(=O)N[C@@H](CCC(N)=O)C(=O)N[C@@H](CCC(=O)O)C(=O)N[C@@H](CC(C)C)C(=O)N[C@@H](Cc1c[nH]cn1)C(=O)N[C@@H](CCCCN)C(=O)N[C@@H](CCC(N)=O)C(=O)N[C@H](C(=O)N[C@@H](Cc1ccc(O)cc1)C(=O)N1CCC[C@H]1C(=O)N[C@@H](CCCNC(=N)N)C(=O)N[C@H](C(=O)N[C@@H](CC(N)=O)C(=O)N[C@H](C(=O)NCC(=O)N[C@@H](CO)C(=O)NCC(=O)N[C@H](C(=O)N1CCC[C@H]1C(N)=O)[C@@H](C)O)[C@@H](C)O)[C@@H](C)O)[C@@H](C)O` [Gly^8, des-Leu^19 -SCT, 8-glycine, des-19-leucine-salmon calcitonin] (H-CSNLSTCGLGKLSQELHKQTYPRTNTGSGTP-NH2; disulfide 1-7), the biological potency in assay [1] (rat, in vivo, sc) is 11,400 IU/mg.
As to `CC(C)C[C@H](NC(=O)[C@H](CCCCN)NC(=O)CNC(=O)[C@H](CC(C)C)NC(=O)[C@@H](NC(=O)[C@@H]1CSSC[C@H](N)C(=O)N[C@@H](CO)C(=O)N[C@@H](CC(N)=O)C(=O)N[C@@H](CC(C)C)C(=O)N[C@@H](CO)C(=O)N[C@@H]([C@@H](C)O)C(=O)N1)C(C)C)C(=O)N[C@@H](CO)C(=O)N[C@@H](CCC(N)=O)C(=O)N[C@@H](CCC(=O)O)C(=O)N[C@@H](CC(C)C)C(=O)N[C@@H](Cc1c[nH]cn1)C(=O)N[C@@H](CCCCN)C(=O)N[C@@H](CC(C)C)C(=O)N[C@@H](CCC(N)=O)C(=O)N[C@H](C(=O)N[C@@H](Cc1ccc(O)cc1)C(=O)N1CCC[C@H]1C(=O)N[C@@H](CCCNC(=N)N)C(=O)N[C@H](C(=O)N[C@@H](CC(N)=O)C(=O)N[C@H](C(=O)NCC(=O)N[C@@H](CO)C(=O)NCC(=O)N[C@H](C(=O)N1CCC[C@H]1C(N)=O)[C@@H](C)O)[C@@H](C)O)[C@@H](C)O)[C@@H](C)O` [salmon calcitonin, Salmon calcitonin], the “potency of the standard salmon calcitonin used” value in assay [1] (independently determined content of the standard) was “greater than 4,000 IU/mg”.
“eel calcitonin (CSNLSTCVLGKLSQELHKLQTYPRTDVGAGTP; ends and bridges not checked; cysteine pairing not given here; UniProt P01262 1-32, looked up) [synthetic eel calcitonin, natural 32-amino-acid calcitonin peptide]”: the hypocalcemic potency result in assay [2] is “around 4300 IU/mg”.
